Experimental data as given in US20250368614A1, “COMPOUNDS AND METHODS FOR YAP/TEAD MODULATION AND INDICATIONS THEREFOR” (OPNA BIO SA, priority 2023, published 2025).

test system: TEAD-dependent transcription (12XGTIIC TEAD response element luciferase reporter) in MSTO-211H cells; experiment: TEAD-dependent transcription cell-based luciferase reporter assay in MSTO-211H+12XGTIIC cells; conditions: Homo sapiens; MSTO-211H+12XGTIIC reporter cells, 24 hours compound incubation, luminescence normalized to cell viability signal, geometric mean; read-out: MSTO-211H GMean IC50 (uM) Cell Assay Reporter Cell Variant: TEAD
Excerpt: Determine Inhibitor Activity Against TEAD-Dependent Transcription in a Cell-Based Reporter Assay
The human mesothelioma cell line MSTO-211H was stably transfected with a pGL4.21 plasmid containing a synthetic promoter with 12 copies of the GTIIC TEAD response element that drives the expression of a luciferase reporter gene^1 using Lipofectamine transfection reagent (Thermo Fisher). Transfected cells were selected using puromycin and single cell clones expressing this construct (referred to as MSTO-211H+12XGTIIC) were generated by limiting dilution. MSTO-211H cells was characterized by genetic alterations in key components of the Hippo pathway^2, resulting in up-regulation of YAP/TEAD-mediated transcription. […] To evaluate TEAD inhibitors, the MSTO-211H+12XGTIIC cell line was seeded in a 96-well plate in 50 μL of culture media at 1×10^4 cells per well and incubated at 37° C. overnight. Serial dilutions of compounds (in total volume of 50 μL of culture media) were added to the cells and incubated at 37° C. for 24 hours. Each plate included cells treated with DMSO as high controls and cells treated with 20 μM of the reference compound K-975 (a known TEAD inhibitor^3) as low controls. Cell viability was assayed by the addition of 25 μL of CellTiter-Fluor reagent (Promega) followed by a 30-minute incubation at 37° C. and quantification of the fluorescence signal (Ex400/Em505). Subsequently, luciferase expression was assayed by the addition of 25 μL of ONE-Glo reagent (Promega) followed by a 10-minute incubation at room temperature and quantification of the luminescence signal. The luminescence signal was normalized to the fluorescence signal to correct for any loss in cell viability over the 24-hour compound incubation period. The percentage of inhibition of normalized luminescence signal, indicative of compound-mediated inhibition of TEAD-dependent transcription, at individual compound concentrations relative to high and low controls was calculated. The data were analyzed by using nonlinear regression to generate IC50 values for individual compounds.

Row | SMILES | IC50
1 | Nc1nc(CC(=O)N2CCc3c(cccc3Nc3ccc(C(F)(F)F)cc3)C2)cs1 [Compound O-0007, 2-(2-aminothiazol-4-yl)-1-(5-((4-(trifluoromethyl)phenyl)amino)-3,4-dihydroisoquinolin-2(1H)-yl)ethan-1-one] | 0.001 to 10 µM
2 | C=CC(=O)Nc1cc(C(=O)N2CCc3c(cccc3Nc3ccc(C(F)(F)F)cc3)C2)ccn1 [Compound O-0038, N-(4-(5-((4-(trifluoromethyl)phenyl)amino)-1,2,3,4-tetrahydroisoquinoline-2-carbonyl)pyridin-2-yl)acrylamide] | 0.001 to 10 µM
3 | Nc1cc(C(=O)N2CCc3c(cccc3Nc3ccc(C(F)(F)F)cc3)C2)ccn1 [Compound O-0032, (2-aminopyridin-4-yl)(5-((4-(trifluoromethyl)phenyl)amino)-3,4-dihydroisoquinolin-2(1H)-yl)methanone] | 0.001 to 10 µM
4 | O=C(CCc1cnc[nH]1)N1CCc2c(cccc2Nc2ccc(C(F)(F)F)cc2)C1 [Compound O-0054, 3-(1H-imidazol-5-yl)-1-(5-((4-(trifluoromethyl)phenyl)amino)-3,4-dihydroisoquinolin-2(1H)-yl)propan-1-one] | 0.001 to 10 µM
5 | C=CC(=O)Nc1cncc(C(=O)N2CCc3c(cccc3Nc3ccc(C(F)(F)F)cc3)C2)c1 [Compound O-0037, N-(5-(5-((4-(trifluoromethyl)phenyl)amino)-1,2,3,4-tetrahydroisoquinoline-2-carbonyl)pyridin-3-yl)acrylamide] | 0.001 to 10 µM
6 | CN(c1ccc(C(F)(F)F)cn1)c1cccc2c1CCN(C(=O)CCS(=O)(=O)C(F)(F)F)C2 [Compound O-0022, 1-(5-(methyl(5-(trifluoromethyl)pyridin-2-yl)amino)-3,4-dihydroisoquinolin-2(1H)-yl)-3-((trifluoromethyl)sulfonyl)propan-1-one] | 0.001 to 10 µM
7 | O=C(CCS(=O)(=O)C(F)(F)F)N1CCc2c(cccc2Nc2ccc(C(F)(F)F)nc2)C1 [Compound O-0020, 1-(5-((6-(trifluoromethyl)pyridin-3-yl)amino)-3,4-dihydroisoquinolin-2(1H)-yl)-3-((trifluoromethyl)sulfonyl)propan-1-one] | 0.001 to 10 µM
8 | C=CC(=O)Nc1cccc(C(=O)N2CCc3c(cccc3N(C)c3ccc(C(F)(F)F)cc3)C2)c1 [Compound O-0017, N-(3-(5-(methyl(4-(trifluoromethyl)phenyl)amino)-1,2,3,4-tetrahydroisoquinoline-2-carbonyl)phenyl)acrylamide] | 0.001 to 10 µM
9 | O=C(c1cccc2[nH]c(C(F)(F)F)nc12)N1CCc2c(cccc2Nc2ccc(C(F)(F)F)cc2)C1 [Compound O-0058, (2-(trifluoromethyl)-1H-benzo[d]imidazol-4-yl)(5-((4-(trifluoromethyl)phenyl)amino)-3,4-dihydroisoquinolin-2(1H)-yl)methanone] | 0.001 to 10 µM
10 | C=CC(=O)Nc1cccc(C(=O)N2CCc3c(cccc3Nc3ccc(C(F)(F)F)cc3)C2)c1 [Compound O-0034, N-(3-(5-((4-(trifluoromethyl)phenyl)amino)-1,2,3,4-tetrahydroisoquinoline-2-carbonyl)phenyl)acrylamide] | 0.001 to 10 µM
11 | CN(c1ccc(C(F)(F)F)cc1)c1cccc2c1CCN(C(=O)c1cccc3[nH]ccc13)C2 [Compound O-0012, (1H-indol-4-yl)(5-(methyl(4-(trifluoromethyl)phenyl)amino)-3,4-dihydroisoquinolin-2(1H)-yl)methanone] | 0.001 to 10 µM
12 | C=CC(=O)Nc1cccc(C(=O)N2CCc3c(cccc3Nc3ccc(C(F)(F)F)cc3)C2)n1 [Compound O-0035, N-(6-(5-((4-(trifluoromethyl)phenyl)amino)-1,2,3,4-tetrahydroisoquinoline-2-carbonyl)pyridin-2-yl)acrylamide] | 0.001 to 10 µM
13 | Cc1nc(CC(=O)N2CCc3c(cccc3Nc3ccc(C(F)(F)F)cc3)C2)co1 [Compound O-0005, 2-(2-methyloxazol-4-yl)-1-(5-((4-(trifluoromethyl)phenyl)amino)-3,4-dihydroisoquinolin-2(1H)-yl)ethan-1-one] | 0.001 to 10 µM
14 | O=C1NC(=O)C(CC(=O)N2CCc3c(cccc3Nc3ccc(C(F)(F)F)cc3F)C2)N1 (stereo not shown) [Compound O-0196, 5-(2-(5-((2-fluoro-4-(trifluoromethyl)phenyl)amino)-3,4-dihydroisoquinolin-2(1H)-yl)-2-oxoethyl)imidazolidine-2,4-dione] | 0.001 to 10 µM
15 | O=C(Nc1ccccn1)N1CCC(C(=O)N2CCc3c(cccc3Nc3ccc(C(F)(F)F)cn3)C2)C1 (stereo not shown) [Compound O-0093, N-(pyridin-2-yl)-3-(5-((5-(trifluoromethyl)pyridin-2-yl)amino)-1,2,3,4-tetrahydroisoquinoline-2-carbonyl)pyrrolidine-1-carboxamide] | 0.001 to 10 µM
16 | O=C(CCS(=O)(=O)C(F)(F)F)N1CCc2c(ncnc2Nc2ccc(C(F)(F)F)cc2)C1 [Compound O-0024, 1-(4-((4-(trifluoromethyl)phenyl)amino)-5,8-dihydropyrido[3,4-d]pyrimidin-7(6H)-yl)-3-((trifluoromethyl)sulfonyl)propan-1-one] | 0.001 to 10 µM
17 | Nc1nccc(C(=O)N2CCc3c(cccc3Nc3ccc(C(F)(F)F)cc3)C2)n1 [Compound O-0033, (2-aminopyrimidin-4-yl)(5-((4-(trifluoromethyl)phenyl)amino)-3,4-dihydroisoquinolin-2(1H)-yl)methanone] | 0.001 to 10 µM
18 | O=C(Cc1cn[nH]c1)N1CCc2c(cccc2Nc2ccc(C(F)(F)F)cc2)C1 [Compound O-0026, 2-(1H-pyrazol-4-yl)-1-(5-((4-(trifluoromethyl)phenyl)amino)-3,4-dihydroisoquinolin-2(1H)-yl)ethan-1-one] | 0.001 to 10 µM
19 | O=C(NC1CC1)N1CCC(C(=O)N2CCc3c(cccc3Nc3ccc(C(F)(F)F)nc3)C2)C1 (stereo not shown) [Compound O-0096, N-cyclopropyl-3-(5-((6-(trifluoromethyl)pyridin-3-yl)amino)-1,2,3,4-tetrahydroisoquinoline-2-carbonyl)pyrrolidine-1-carboxamide] | 0.001 to 10 µM
20 | O=C(NC1CC1)N1CCC(C(=O)N2CCc3c(cccc3Nc3ccc(C(F)(F)F)c(F)c3)C2)C1 (stereo not shown) [Compound O-0098, N-cyclopropyl-3-(5-((3-fluoro-4-(trifluoromethyl)phenyl)amino)-1,2,3,4-tetrahydroisoquinoline-2-carbonyl)pyrrolidine-1-carboxamide] | 0.001 to 10 µM
21 | CN(c1ccc(C(F)(F)F)cc1)c1ncnc2c1CCN(C(=O)CCS(=O)(=O)C(F)(F)F)C2 [Compound O-0025, 1-(4-(methyl(4-(trifluoromethyl)phenyl)amino)-5,8-dihydropyrido[3,4-d]pyrimidin-7(6H)-yl)-3-((trifluoromethyl)sulfonyl)propan-1-one] | 0.001 to 10 µM
22 | NC(=O)N1CCC(C(=O)N2CCc3c(cccc3Nc3ccc(C(F)(F)F)cc3)C2)C1 (stereo not shown) [Compound O-0057, 3-(5-((4-(trifluoromethyl)phenyl)amino)-1,2,3,4-tetrahydroisoquinoline-2-carbonyl)pyrrolidine-1-carboxamide] | 0.001 to 10 µM
23 | CN1CCN(CCCS(=O)(=O)N2CCc3c(cccc3Nc3ccc(C(F)(F)F)cc3)C2)CC1 [Compound O-0198, 2-((3-(4-methylpiperazin-1-yl)propyl)sulfonyl)-N-(4-(trifluoromethyl)phenyl)-1,2,3,4-tetrahydroisoquinolin-5-amine] | 0.001 to 10 µM
24 | O=C(Cc1cn[nH]c1)N1CCc2c(cccc2Nc2ccc(C(F)(F)F)nc2)C1 [Compound O-0059, 2-(1H-pyrazol-4-yl)-1-(5-((6-(trifluoromethyl)pyridin-3-yl)amino)-3,4-dihydroisoquinolin-2(1H)-yl)ethan-1-one] | 0.001 to 10 µM
25 | Nc1ccnc(C(=O)N2CCc3c(cccc3Nc3ccc(C(F)(F)F)cc3)C2)c1 [Compound O-0030, (4-aminopyridin-2-yl)(5-((4-(trifluoromethyl)phenyl)amino)-3,4-dihydroisoquinolin-2(1H)-yl)methanone] | 0.001 to 10 µM
26 | O=C(NCCC(=O)N1CCc2c(cccc2Nc2ccc(C(F)(F)F)nc2)C1)NC1CC1 [Compound O-0195, 1-cyclopropyl-3-(3-oxo-3-(5-((6-(trifluoromethyl)pyridin-3-yl)amino)-3,4-dihydroisoquinolin-2(1H)-yl)propyl)urea] | 0.001 to 10 µM
27 | CNS(=O)(=O)c1cccc(C(=O)N2CCc3c(cccc3Nc3ccc(C(F)(F)F)cc3)C2)c1 [Compound O-0200, N-methyl-3-(5-((4-(trifluoromethyl)phenyl)amino)-1,2,3,4-tetrahydroisoquinoline-2-carbonyl)benzenesulfonamide] | 0.001 to 10 µM
28 | O=C1NS(=O)(=O)c2cc(C(=O)N3CCc4c(cccc4Nc4ccc(C(F)(F)F)cc4)C3)ccc21 [Compound O-0199, 6-(5-((4-(trifluoromethyl)phenyl)amino)-1,2,3,4-tetrahydroisoquinoline-2-carbonyl)benzo[d]isothiazol-3(2H)-one 1,1-dioxide] | 0.001 to 10 µM
